Starred links: 1 amine or outer side, 2 acyl side, 3 side chain; linkers in the order of their positions; H or OH if unused. Non-standard residues stand in square brackets, D forms with d. Residues, ends and D or L forms follow the SMILES beside them. Groups on a side chain read outwards from the residue. *: point of attachment. C20 diacid = O=C(O)CCCCCCCCCCCCCCCCCCC(=O)*; αMePhe(2-F) = C[C@](N)(Cc1ccccc1F)C(=O)O; γGlu = O=C(O)[C@H](CCC(=O)[*:2])N[*:1]; AEEA = NCCOCCOCC(=O)O; Aib = CC(C)(N)C(=O)O
Columns and labels:
Format in all cases: cell-based
GLP-1R = target: T1, GLP-1R (Homo sapiens, UniProt P43220); assay: In vitro cell activity, cAMP production in HEK293 cells expressing GLP-1R; conditions: HEK293-GLP-1R cells, cAMP; read-out: GLP-1R (EC50)
T1 construct: expressed in transfected cells; host or cells: HEK293 (HEK293-GLP-1R)
T1 sequence (P43220 24-463, species assumed): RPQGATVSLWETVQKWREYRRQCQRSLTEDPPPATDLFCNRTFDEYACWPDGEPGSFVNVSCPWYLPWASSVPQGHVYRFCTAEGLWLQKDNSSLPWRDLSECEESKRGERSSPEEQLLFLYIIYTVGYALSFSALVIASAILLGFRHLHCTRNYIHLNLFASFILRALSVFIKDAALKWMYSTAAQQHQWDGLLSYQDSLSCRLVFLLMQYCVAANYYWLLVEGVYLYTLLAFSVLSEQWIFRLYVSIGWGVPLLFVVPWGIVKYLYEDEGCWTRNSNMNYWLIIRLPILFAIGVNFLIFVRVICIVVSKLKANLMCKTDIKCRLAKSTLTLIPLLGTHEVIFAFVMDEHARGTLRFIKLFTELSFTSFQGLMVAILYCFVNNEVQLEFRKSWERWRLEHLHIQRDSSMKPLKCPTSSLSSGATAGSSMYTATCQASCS
Method in brief: (§1)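 Cells were plated at 4×10^5 cells/mL, and detection reagents (cAMP-d2, anti-cAMP cryptate, 1:1) were incubated 1 h at room temperature in the dark or overnight at 4 °C.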

GIPR = target: T2, GIPR (Homo sapiens, UniProt P48546); assay: In vitro cell activity, cAMP production in HEK293 cells expressing GIPR; conditions: HEK293-GIPR cells, cAMP; read-out: GIPR (EC50)
T2 construct: expressed in transfected cells; host or cells: HEK293 (HEK293-GIPR)
T2 sequence (P48546 22-466): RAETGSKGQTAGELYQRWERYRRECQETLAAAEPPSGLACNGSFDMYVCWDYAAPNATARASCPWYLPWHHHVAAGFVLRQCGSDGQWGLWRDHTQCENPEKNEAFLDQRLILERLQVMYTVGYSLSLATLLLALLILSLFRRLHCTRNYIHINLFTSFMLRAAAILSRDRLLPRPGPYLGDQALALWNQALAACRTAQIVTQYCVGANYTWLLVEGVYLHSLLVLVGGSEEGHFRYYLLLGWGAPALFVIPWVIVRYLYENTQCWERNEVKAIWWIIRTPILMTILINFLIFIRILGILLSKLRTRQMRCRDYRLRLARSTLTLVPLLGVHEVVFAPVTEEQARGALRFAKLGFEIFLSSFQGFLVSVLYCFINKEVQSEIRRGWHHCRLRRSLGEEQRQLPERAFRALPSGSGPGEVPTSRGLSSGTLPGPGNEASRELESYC
Method in brief: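 cAMP accumulation is quantified by homogeneous TR-FRET (cAMP-d2 plus anti-cAMP cryptate) in GIPR-expressing HEK293 cells seeded from a 4×10^5 cells/mL suspension and treated with compound. The signal ratio is plotted against concentration and fitted to a four-parameter curve to give EC50.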

GCGR = target: T3, GCGR (Homo sapiens, UniProt P47871); assay: In vitro cell activity, cAMP production in HEK293 cells expressing GCGR; conditions: HEK293-GCGR cells, cAMP; read-out: GCGR (EC50)
T3 construct: expressed in transfected cells; host or cells: HEK293 (HEK293-GCGR)
T3 sequence (P47871 26-477, species assumed): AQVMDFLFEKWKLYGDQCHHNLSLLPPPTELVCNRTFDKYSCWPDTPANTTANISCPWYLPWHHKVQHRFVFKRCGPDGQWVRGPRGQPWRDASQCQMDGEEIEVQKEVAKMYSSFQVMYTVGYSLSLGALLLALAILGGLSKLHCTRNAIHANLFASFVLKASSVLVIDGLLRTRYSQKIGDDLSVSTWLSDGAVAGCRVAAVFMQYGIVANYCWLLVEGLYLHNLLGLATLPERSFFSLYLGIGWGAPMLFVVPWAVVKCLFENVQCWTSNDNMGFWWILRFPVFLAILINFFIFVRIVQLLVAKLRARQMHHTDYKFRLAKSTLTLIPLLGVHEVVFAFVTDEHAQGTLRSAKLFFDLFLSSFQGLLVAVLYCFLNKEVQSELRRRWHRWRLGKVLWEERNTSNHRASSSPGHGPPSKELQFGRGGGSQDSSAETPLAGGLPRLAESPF
Method in brief: as §1

SMILES	EC50 (GLP-1R)	EC50 (GIPR)	EC50 (GCGR)
CC[C@H](C)[C@H](NC(=O)[C@H](Cc1ccccc1)NC(=O)[C@H](C)NC(=O)[C@H](CCC(N)=O)NC(=O)[C@H](C)NC(=O)[C@H](CCCNC(=N)N)NC(=O)[C@H](CCCCNC(=O)COCCOCCNC(=O)CC[C@H](NC(=O)CCCCCCCCCCCCCCCCCCC(=O)O)C(=O)O)NC(=O)[C@H](CCC(=O)O)NC(=O)[C@H](CC(=O)O)NC(=O)[C@H](CC(C)C)NC(=O)[C@H](CC(C)C)NC(=O)[C@@H](NC(=O)[C@H](CO)NC(=O)[C@H](Cc1ccc(O)cc1)NC(=O)[C@H](CC(=O)O)NC(=O)[C@H](CO)NC(=O)[C@@H](NC(=O)[C@](C)(Cc1ccccc1F)NC(=O)[C@@H](NC(=O)CNC(=O)[C@H](CCC(N)=O)NC(=O)C(C)(C)NC(=O)[C@@H](N)Cc1ccc(O)cc1)[C@@H](C)O)[C@@H](C)O)[C@@H](C)CC)C(=O)N[C@@H](CCC(=O)O)C(=O)N[C@@H](Cc1ccc(O)cc1)C(=O)N[C@@H](CC(C)C)C(=O)N[C@@H](CC(C)C)C(=O)N[C@@H](CCC(=O)O)C(=O)NCC(=O)NCC(=O)N1CCC[C@H]1C(=O)N[C@@H](CO)C(=O)N[C@@H](CO)C(=O)NCC(=O)N[C@@H](C)C(=O)N1CCC[C@H]1C(=O)N1CCC[C@H]1C(=O)N1CCC[C@H]1C(=O)N[C@@H](CO)C(=O)O [HEC-PT94]	541 pM	1300 pM	44.2 pM
CC[C@H](C)[C@H](NC(=O)[C@H](Cc1ccccc1)NC(=O)[C@H](C)NC(=O)[C@H](CCCNC(=N)N)NC(=O)[C@H](CCC(N)=O)NC(=O)[C@H](C)NC(=O)[C@H](CCCCNC(=O)COCCOCCNC(=O)CC[C@H](NC(=O)CCCCCCCCCCCCCCCCCCC(=O)O)C(=O)O)NC(=O)[C@H](CCC(=O)O)NC(=O)[C@H](CC(=O)O)NC(=O)[C@H](CC(C)C)NC(=O)[C@H](CC(C)C)NC(=O)[C@@H](NC(=O)[C@H](CO)NC(=O)[C@H](Cc1ccc(O)cc1)NC(=O)[C@H](CC(=O)O)NC(=O)[C@H](CO)NC(=O)[C@@H](NC(=O)[C@](C)(Cc1ccccc1F)NC(=O)[C@@H](NC(=O)CNC(=O)[C@H](CCC(N)=O)NC(=O)C(C)(C)NC(=O)[C@@H](N)Cc1ccc(O)cc1)[C@@H](C)O)[C@@H](C)O)[C@@H](C)CC)C(=O)N[C@@H](CCC(=O)O)C(=O)N[C@@H](Cc1ccc(O)cc1)C(=O)N[C@@H](CC(C)C)C(=O)N[C@@H](CC(C)C)C(=O)N[C@@H](C)C(=O)NCC(=O)NCC(=O)N1CCC[C@H]1C(=O)N[C@@H](CO)C(=O)N[C@@H](CO)C(=O)NCC(=O)N[C@@H](C)C(=O)N1CCC[C@H]1C(=O)N1CCC[C@H]1C(=O)N1CCC[C@H]1C(=O)N[C@@H](CO)C(=O)O [HEC-PT95]	156 pM	237 pM	682 pM
CC[C@H](C)[C@H](NC(=O)[C@H](CCC(=O)O)NC(=O)[C@H](CC(=O)O)NC(=O)[C@H](CC(C)C)NC(=O)[C@H](CC(C)C)NC(=O)[C@@H](NC(=O)[C@H](CO)NC(=O)[C@H](Cc1ccc(O)cc1)NC(=O)[C@H](CC(=O)O)NC(=O)[C@H](CO)NC(=O)[C@@H](NC(=O)[C@](C)(Cc1ccccc1F)NC(=O)[C@@H](NC(=O)CNC(=O)[C@H](CCC(N)=O)NC(=O)C(C)(C)NC(=O)[C@@H](N)Cc1ccc(O)cc1)[C@@H](C)O)[C@@H](C)O)[C@@H](C)CC)C(=O)N[C@@H](C)C(=O)N[C@@H](CCC(N)=O)C(=O)N[C@@H](CCCCNC(=O)COCCOCCNC(=O)COCCOCCNC(=O)CC[C@H](NC(=O)CCCCCCCCCCCCCCCCCCC(=O)O)C(=O)O)C(=O)N[C@@H](C)C(=O)N[C@@H](Cc1ccccc1)C(=O)N[C@H](C(=O)N[C@@H](CCC(=O)O)C(=O)N[C@@H](Cc1ccc(O)cc1)C(=O)N[C@@H](CC(C)C)C(=O)N[C@H](C(=O)N[C@@H](C)C(=O)NCC(=O)NCC(=O)N1CCC[C@H]1C(=O)N[C@@H](CO)C(=O)N[C@@H](CO)C(=O)NCC(=O)N[C@@H](C)C(=O)N1CCC[C@H]1C(=O)N1CCC[C@H]1C(=O)N1CCC[C@H]1C(=O)N[C@@H](CO)C(=O)O)[C@@H](C)CC)[C@@H](C)CC [HEC-PT99]	278 pM	176 pM	12300 pM
CC[C@H](C)[C@H](NC(=O)[C@H](CCC(=O)O)NC(=O)[C@H](CC(=O)O)NC(=O)[C@H](CC(C)C)NC(=O)[C@H](CC(C)C)NC(=O)[C@@H](NC(=O)[C@H](CO)NC(=O)[C@H](Cc1ccc(O)cc1)NC(=O)[C@H](CC(=O)O)NC(=O)[C@H](CO)NC(=O)[C@@H](NC(=O)[C@](C)(Cc1ccccc1F)NC(=O)[C@@H](NC(=O)CNC(=O)[C@H](CCC(N)=O)NC(=O)C(C)(C)NC(=O)[C@@H](N)Cc1ccc(O)cc1)[C@@H](C)O)[C@@H](C)O)[C@@H](C)CC)C(=O)N[C@@H](C)C(=O)N[C@@H](CCC(N)=O)C(=O)N[C@@H](CCCCNC(=O)COCCOCCNC(=O)COCCOCCNC(=O)CC[C@H](NC(=O)CCCCCCCCCCCCCCCCCCC(=O)O)C(=O)O)C(=O)N[C@@H](C)C(=O)N[C@@H](Cc1ccccc1)C(=O)N[C@H](C(=O)N[C@@H](CCC(N)=O)C(=O)N[C@@H](Cc1c[nH]c2ccccc12)C(=O)N[C@@H](CC(C)C)C(=O)N[C@H](C(=O)N[C@@H](C)C(=O)NCC(=O)NCC(=O)N1CCC[C@H]1C(=O)N[C@@H](CO)C(=O)N[C@@H](CO)C(=O)NCC(=O)N[C@@H](C)C(=O)N1CCC[C@H]1C(=O)N1CCC[C@H]1C(=O)N1CCC[C@H]1C(=O)N[C@@H](CO)C(=O)O)[C@@H](C)CC)C(C)C [HEC-PT100] (H-Y[Aib]QGT[αMePhe(2-F)]TSDYSILLDEIAQK([AEEA-AEEA-γGlu-C20 diacid])AFVQWLIAGGPSSGAPPPS-OH)	97.8 pM	51.8 pM	9580 pM
CC[C@H](C)[C@H](NC(=O)[C@H](CO)NC(=O)[C@H](Cc1ccc(O)cc1)NC(=O)[C@H](CC(=O)O)NC(=O)[C@H](CO)NC(=O)[C@@H](NC(=O)[C@](C)(Cc1ccccc1F)NC(=O)[C@@H](NC(=O)CNC(=O)[C@H](Cc1c[nH]cn1)NC(=O)C(C)(C)NC(=O)[C@@H](N)Cc1ccc(O)cc1)[C@@H](C)O)[C@@H](C)O)C(=O)N[C@@H](CC(C)C)C(=O)N[C@@H](CC(C)C)C(=O)N[C@@H](CC(=O)O)C(=O)N[C@@H](CCC(=O)O)C(=O)N[C@@H](CCCCNC(=O)COCCOCCNC(=O)CC[C@H](NC(=O)CCCCCCCCCCCCCCCCC(=O)O)C(=O)O)C(=O)N[C@@H](C)C(=O)N[C@@H](CCC(N)=O)C(=O)NC(C)(C)C(=O)N[C@@H](CCC(=O)O)C(=O)N[C@@H](Cc1ccccc1)C(=O)N[C@H](C(=O)N[C@@H](CCC(=O)O)C(=O)N[C@@H](Cc1c[nH]c2ccccc12)C(=O)N[C@@H](CC(C)C)C(=O)N[C@@H](CC(C)C)C(=O)N[C@@H](C)C(=O)NCC(=O)NCC(=O)N1CCC[C@H]1C(=O)N[C@@H](CO)C(=O)N[C@@H](CO)C(=O)NCC(=O)N[C@@H](C)C(=O)N1CCC[C@H]1C(=O)N1CCC[C@H]1C(=O)N1CCC[C@H]1C(=O)N[C@@H](CO)C(N)=O)[C@@H](C)CC [HEC-PT107]	267 pM	79 pM	3560 pM

Source: EP4596574A1, “GLP-1/GCG/GIP TRIPLE-RECEPTOR AGONIST AND USE THEREOF” (Sunshine Lake Pharma Co., Ltd., priority 2022, dated 2024)
